Test results published in patent US12357652B2, “Formulations of phosphoramidate derivatives of nucleoside drugs” (priority 2015, dated 2025).

Columns and labels:
[1] = Stability of 100 mg/ml NUC-3373 surfactant solution; assay type: physicochemical
Protocol: The successful development of the Diluent Solution to enable preparation of the NUC-1031 aqueous formulation prompted its development for an aqueous formulation of NUC-3373. An aqueous NUC-3373 formulation was developed by adding 6.7 ml of a 250 mg/ml solution of NUC-3373 in 80% DMA:20% 0.9% saline to 10 ml diluent solution to generate a 100 mg/ml NUC-3373 surfactant solution (see Table 4), prior to subsequent dilution into an infusion bag.

[2] = Alternative aqueous infusion solutions of NUC-3373 (osmolarity, stability); assay type: physicochemical
cancer models = details: versus 5-fluorouracil; cited from earlier work
cancer = assay: Clinical trial of NUC-3373; assay type: in vivo; details: infusion solutions prepared as in Example 3; early results
From the text: In a clinical trial of NUC-3373, this administration methodology has allowed NUC-3373 to be successfully administered via a CVAD.

For `C[C@H](NP(=O)(OC[C@H]1O[C@@H](n2cc(F)c(=O)[nH]c2=O)CC1O)Oc1cccc2ccccc12)C(=O)OCc1ccccc1` (stereo partly drawn) [NUC-3373, 5-fluoro-2′-deoxyuridine-5′-O-[1-naphthyl (benzoxy-L-alaninyl)] phosphate], the Assay content ([1]; 0 hours, 5° C.) was 105.5 mg/mL, the Purity ([1]; 0 hours, 5° C.) was 96.1 % area and the pH ([1]; 0 hours, 5° C.) was 7.8. The Assay content ([1]; 0 hours, 20° C.) was 104.8 mg/mL, the Purity ([1]; 0 hours, 20° C.) was 96.2 % area and the pH ([1]; 0 hours, 20° C.) was 7.8. For the same compound, the Assay content ([1]; 8 hours, 5° C.) was 102.5 mg/mL, the Purity ([1]; 8 hours, 5° C.) was 96.2 % area and the pH ([1]; 8 hours, 5° C.) was 7.9. It also gave an Assay content ([1]; 8 hours, 20° C.) of 100.7 mg/mL, a Purity ([1]; 8 hours, 20° C.) of 96.1 % area and a pH ([1]; 8 hours, 20° C.) of 7.8. It also gave an Assay content ([1]; 24 hours, 5° C.) of 103.7 mg/mL, a Purity ([1]; 24 hours, 5° C.) of 96.1 % area and a pH ([1]; 24 hours, 5° C.) of 7.9. For the same compound, the Assay content ([1]; 24 hours, 20° C.) was 99.1 mg/mL, the Purity ([1]; 24 hours, 20° C.) was 96.1 % area and the pH ([1]; 24 hours, 20° C.) was 7.8. It also gave an Assay content ([1]; 48 hours, 5° C.) of 102.4 mg/mL, a Purity ([1]; 48 hours, 5° C.) of 96.1 % area and a pH ([1]; 48 hours, 5° C.) of 7.9. The Assay content ([1]; 48 hours, 20° C.) was 99.4 mg/mL, the Purity ([1]; 48 hours, 20° C.) was 96.2 % area and the pH ([1]; 48 hours, 20° C.) was 7.9. For the same compound, the Stability ([1]; for 48 hours at 5° C. and 20° C.) was “stable”, the Osmolarity ([2]; high dose (3,000 mg) NUC-3373 in 500 ml 0.9% saline infusion bag) was 524 mosm/1 and the Osmolarity ([2]; high dose NUC-3373 (10 mg/ml) using 0.45% saline) was 715 mosm/l H2O. The Osmolarity ([2]; high dose NUC-3373 (10 mg/ml) using WFI) was 557 mosm/l H2O, the Osmolarity ([2]; high dose NUC-3373 (10 mg/ml; 3,000 mg) in 250 ml 0.9% saline) was 812 mosm/1 and the Activity in vitro (cancer models) was “outstanding and far superior to the results obtained with 5-fluorouracil”. For the same compound, the “Efficacy in treating cancer” value (cancer) was “some efficacy in treating cancer”.
